From patent US20050228016A1, “TETRAHYDROQUINOLINES FOR MODULATING THE EXPRESSION OF EXOGENOUS GENES VIA AN ECDYSONE RECEPTOR COMPLEX” (priority 2002, published 2005)

Legend:
Gal4DBD/AaEcR (DEF) = molecular target: T1, Gal4DBD/AaEcR (DEF) (Aedes aegypti, UniProt P49880); assay: cell-based; format: cell-based; conditions: for Fold Induction Average, AA_3T3V1 Assay 33 μM: 3T3 cells, 48 h, average of two wells
T1 construct: The wildtype D, E, and F domains from mosquito Aedes aegypti EcR; expressed in transfected cells; host or cells: 3T3 cells
Method in brief: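 Single-dose ligand testing at 33 μM, applied in serum medium after 4 h transfection. Host was 3T3 cells carrying Gal4DBD/AaEcR (DEF) plus a 5× GAL4 RE-driven firefly luciferase reporter (pFRLuc).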

[1] = molecular target: T2, Bombyx mori EcR (VP16-BmEcR, CVBE) (Bombyx mori, UniProt P49881); assay: Z3 assay (HEK-293 clone Z3 with CVBE and 6x EcRE LacZ, β-galactosidase reporter); format: cell-based; conditions: average of two wells; for Fold Induction Average, Z3V1 Assay 33 μM: 48 h
T2 construct: expressed in transfected cells
T2 sequence (P49881 86-606): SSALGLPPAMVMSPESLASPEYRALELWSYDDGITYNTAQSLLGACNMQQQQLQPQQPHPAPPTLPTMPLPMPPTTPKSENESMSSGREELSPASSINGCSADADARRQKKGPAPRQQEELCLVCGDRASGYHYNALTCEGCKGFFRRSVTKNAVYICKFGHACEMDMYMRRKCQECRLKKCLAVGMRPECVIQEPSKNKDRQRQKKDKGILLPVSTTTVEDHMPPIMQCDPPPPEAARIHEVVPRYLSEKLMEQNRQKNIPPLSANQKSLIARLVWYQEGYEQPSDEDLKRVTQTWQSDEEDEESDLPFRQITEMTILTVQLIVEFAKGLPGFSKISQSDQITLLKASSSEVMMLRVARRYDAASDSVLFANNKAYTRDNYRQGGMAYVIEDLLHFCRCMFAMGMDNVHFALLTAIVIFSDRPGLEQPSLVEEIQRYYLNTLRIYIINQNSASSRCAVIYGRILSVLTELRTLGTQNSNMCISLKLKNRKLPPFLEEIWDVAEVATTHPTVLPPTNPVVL
From the text: Dr. F. Gage provided a population of stably transformed cells containing CVBE and 6× EcRE as described in (Suhr et. al. 1998). Human 293 kidney cells, also referred to as HEK-293 cells, were sequentially infected with retroviral vectors encoding first the switch construct CVBE, and subsequently the reporter construct 6× EcRE Lac Z. The switch construct contained the coding sequence for amino acids 26-546 from Bombyx nori EcR (BE) (Iatrou) inserted in frame and downstream of the VP16 transactivation domain (VBE). A synthetic ATG start codon was placed under the control of cytomegalovirus (CVBE) immediate early promoter and flanked by long terminal repeats (LTR). The reporter-construct contained six copies of the ecdysone response element (EcRE) binding site placed upstream of LacZ and flanked on both sides with LTR sequences (6× EcRE).
Dilution cloning was used to isolate individual clones. Clones were selected using 450 μg/ml G418 and 100 ng/ml puromycin. Individual clones were evaluated based on their response in the presence and absence of test ligands.
Human 293 kidney cells stably transformed with CVBE and 6× EcRE lack were maintained in Minimum Essential Medium (Mediates, 10-010-CV) containing 10%.FBS (Life Technologies, 26140-087),[…] G418 (Mediates, 30-234-CR), and […] (Sigma, P-7255), at 37° C. in an atmosphere containing 5% CO2 and were subculture when they reached 75% confluence.
Z3 cells were seeded into 96-well tissue culture plates at a concentration of 2.5×10^3 cells per well and incubated at 37° C. in 5% CO2 for twenty-four hours. Stock solutions of ligands were prepared in DMSO. Ligand stock solutions were diluted 100.fold in media and 50 μL of this diluted ligand solution (33 μM) was added to cells.
Reporter gene expression was evaluated 48 hours after treatment of cells, β-galactosidase activity was measured using Gal Screen™ bioluminescent reporter gene assay system from Tropix (GSY1000).
Flanking both constructs are long terminal repeats, G418 and puromycin are selectable markers, CMV is the cytomegalovirus promoter, VBE is coding sequence for amino acids 26-546 from Bombyx mori EcR inserted downstream of the VP16 transactivation domain, 6× EcRE is six copies of the ecdysone response element, lacZ encodes for the reporter enzyme β-galactosidase.

T1 sequence (P28704 286-520 A311G/G315S/G445S/I449V): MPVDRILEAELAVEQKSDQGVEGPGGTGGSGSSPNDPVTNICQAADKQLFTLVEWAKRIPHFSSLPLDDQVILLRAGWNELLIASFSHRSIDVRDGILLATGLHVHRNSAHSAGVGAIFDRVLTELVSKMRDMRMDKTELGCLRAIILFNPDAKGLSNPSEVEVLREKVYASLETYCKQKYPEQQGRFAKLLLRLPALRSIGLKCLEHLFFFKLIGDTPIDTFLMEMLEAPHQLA
T1 sequence (P49880 405-776): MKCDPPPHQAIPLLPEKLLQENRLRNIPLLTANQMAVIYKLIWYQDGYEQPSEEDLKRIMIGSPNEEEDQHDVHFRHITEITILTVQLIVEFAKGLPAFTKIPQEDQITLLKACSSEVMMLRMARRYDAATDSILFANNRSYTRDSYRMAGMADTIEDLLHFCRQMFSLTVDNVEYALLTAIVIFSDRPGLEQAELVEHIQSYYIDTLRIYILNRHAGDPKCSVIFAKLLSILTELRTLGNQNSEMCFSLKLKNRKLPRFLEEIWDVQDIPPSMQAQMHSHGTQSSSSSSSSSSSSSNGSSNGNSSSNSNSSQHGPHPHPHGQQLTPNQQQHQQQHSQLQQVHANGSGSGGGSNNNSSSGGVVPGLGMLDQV

## COc1ccc(C(=O)N2c3ccc(C)cc3[C@@H](Nc3ccc(C)cc3)C[C@H]2C)cc1 (stereo in doubt) [Compound I-98, cis-2,6-dimethyl-1-(4-methoxybenzoyl)-4-(4-methylphenylamino)-1,2,3,4-tetrahydroquinoline]
Gal4DBD/AaEcR (DEF); NIH3T3, read-out: Fold Induction Average, AA_3T3V1 Assay 33 μM
  fold induction at 33 µM: 1
[1]; HEK293, 48 h, read-out: Fold Induction Average, Z3V1 Assay 33 μM
  fold induction at 33 µM: 1

## CCc1ccc(C(=O)N2c3ccc(F)cc3C(Nc3ccc(F)cc3)CC2C)cc1 (stereo not drawn) [Compound I-36]
Gal4DBD/AaEcR (DEF)
  Fold Induction Average, AA_3T3V1 Assay 33 μM: 113 fold
[1]
  Fold Induction Average, Z3V1 Assay 33 μM: 33 fold

## COC(=O)c1ccc(C(=O)N2c3ccc(F)cc3C(Nc3ccc(F)cc3)CC2C)cc1 (stereo not drawn) [Compound I-37]
Gal4DBD/AaEcR (DEF)
  Fold Induction Average, AA_3T3V1 Assay 33 μM: 37 fold
[1]
  Fold Induction Average, Z3V1 Assay 33 μM: 1 fold

## CC1CC(Nc2ccc(F)cc2)c2cc(F)ccc2N1C(=O)c1ccc2c(c1)OCO2 (stereo not drawn) [Compound I-38]
Gal4DBD/AaEcR (DEF)
  Fold Induction Average, AA_3T3V1 Assay 33 μM: 76 fold
[1]
  Fold Induction Average, Z3V1 Assay 33 μM: 10 fold

## COc1cccc(C(=O)N2c3ccc(C)cc3C(Nc3ccc(C)cc3)CC2C)c1C (stereo not drawn) [Compound I-54]
Gal4DBD/AaEcR (DEF)
  Fold Induction Average, AA_3T3V1 Assay 33 μM: 35 fold
[1]
  Fold Induction Average, Z3V1 Assay 33 μM: 7 fold

## CC1CC(Nc2ccc(F)cc2)c2cc(F)ccc2N1C(=O)c1ccccc1F (stereo not drawn) [Compound I-55]
Gal4DBD/AaEcR (DEF)
  Fold Induction Average, AA_3T3V1 Assay 33 μM: 78 fold
[1]
  Fold Induction Average, Z3V1 Assay 33 μM: 10 fold

## Cc1ccccc1C(=O)N1c2ccc(F)cc2C(Nc2ccc(F)cc2)CC1C (stereo not drawn) [Compound I-56]
Gal4DBD/AaEcR (DEF)
  Fold Induction Average, AA_3T3V1 Assay 33 μM: 158 fold
[1]
  Fold Induction Average, Z3V1 Assay 33 μM: 8 fold

## COc1ccccc1C(=O)N1c2ccc(F)cc2C(Nc2ccc(F)cc2)CC1C (stereo not drawn) [Compound I-57]
Gal4DBD/AaEcR (DEF)
  Fold Induction Average, AA_3T3V1 Assay 33 μM: 4 fold
[1]
  Fold Induction Average, Z3V1 Assay 33 μM: 1 fold

## CC1CC(Nc2ccccc2)c2ccccc2N1C(=O)c1ccc(Cl)cc1 (stereo not drawn) [Compound I-61]
Gal4DBD/AaEcR (DEF)
  Fold Induction Average, AA_3T3V1 Assay 33 μM: 216 fold
[1]
  Fold Induction Average, Z3V1 Assay 33 μM: 4 fold

## CCc1ccc(C(=O)N2c3ccccc3C(Nc3ccccc3)CC2C)cc1 (stereo not drawn) [Compound I-62]
Gal4DBD/AaEcR (DEF)
  Fold Induction Average, AA_3T3V1 Assay 33 μM: 744 fold
[1]
  Fold Induction Average, Z3V1 Assay 33 μM: 43 fold

## Cc1ccc(NC2CC(C)N(C(=O)c3ccc(Cl)cc3)c3ccc(C)cc32)cc1 (stereo not drawn) [Compound I-63]
Gal4DBD/AaEcR (DEF)
  Fold Induction Average, AA_3T3V1 Assay 33 μM: 812 fold
[1]
  Fold Induction Average, Z3V1 Assay 33 μM: 1 fold

## COc1ccc(C(=O)N2c3ccccc3C(Nc3ccccc3)CC2C)cc1 (stereo not drawn) [Compound I-95]
Gal4DBD/AaEcR (DEF)
  Fold Induction Average, AA_3T3V1 Assay 33 μM: 11 fold
[1]
  Fold Induction Average, Z3V1 Assay 33 μM: 1 fold

## Cc1ccc(C(=O)N2c3ccccc3C(Nc3ccccc3)CC2C)cc1 (stereo not drawn) [Compound I-96]
Gal4DBD/AaEcR (DEF)
  Fold Induction Average, AA_3T3V1 Assay 33 μM: 121 fold
[1]
  Fold Induction Average, Z3V1 Assay 33 μM: 1 fold

## CC1CC(Nc2ccccc2)c2ccccc2N1C(=O)c1ccccc1 (stereo not drawn) [Compound I-97]
Gal4DBD/AaEcR (DEF)
  Fold Induction Average, AA_3T3V1 Assay 33 μM: 37 fold
[1]
  Fold Induction Average, Z3V1 Assay 33 μM: 1 fold

## COc1ccc(C(=O)N2c3ccc(F)cc3C(Nc3ccc(F)cc3)CC2C)cc1 (stereo not drawn) [Compound I-101]
Gal4DBD/AaEcR (DEF)
  Fold Induction Average, AA_3T3V1 Assay 33 μM: 561 fold
[1]
  Fold Induction Average, Z3V1 Assay 33 μM: 2 fold

## Cc1ccc(C(=O)N2c3ccc(F)cc3C(Nc3ccc(F)cc3)CC2C)cc1 (stereo not drawn) [Compound I-102]
Gal4DBD/AaEcR (DEF)
  Fold Induction Average, AA_3T3V1 Assay 33 μM: 601 fold
[1]
  Fold Induction Average, Z3V1 Assay 33 μM: 3 fold

## CC1CC(Nc2ccccc2)c2ccccc2N1C(=O)c1ccc(Cl)nc1 (stereo not drawn) [Compound I-103]
Gal4DBD/AaEcR (DEF)
  Fold Induction Average, AA_3T3V1 Assay 33 μM: 341 fold
[1]
  Fold Induction Average, Z3V1 Assay 33 μM: 4 fold

## CC1CC(Nc2ccccc2)c2ccccc2N1C(=O)c1ccc(Cl)c(F)c1 (stereo not drawn) [Compound I-105]
Gal4DBD/AaEcR (DEF)
  Fold Induction Average, AA_3T3V1 Assay 33 μM: 369 fold
[1]
  Fold Induction Average, Z3V1 Assay 33 μM: 30 fold
